Consider 6 molecules from article PMC7497180 (Chembiochem, 2020).

The subject of one data set is recombinant NTR. The data set is described as follows: Luminescent probe activation by recombinant NTR in vitro. Particulars: low NTR concentrations (18–30 nM). Type of data set: biochemical, E. coli.
Data set [1] deals with THP1^wt cells. Put plainly: Luminescent measurement of NTR activity in cells, non-transfected. Type of data set: cell-based. Particulars: 25 μM, 60 min.
The subject of data set [2] is THP1‐NTR^+ cells. Put plainly: Luminescent measurement of NTR activity in cells, NTR-expressing. The format is cell-based. Particulars: 25 μM, 60 min.
In data set [3] the test system is THP1‐NTR^+ cells. The data set is described as follows: Colony forming unit. The settings on record: for Selectivity window THP1^wt / THP1‐NTR^+: CFU EC50 ratio; for EC50: read-out: THP1‐NTR^+ CFU EC50. Type of data set: cell-based.
For data set [4], the system named is THP1^wt cells. The data set is described as follows: Colony forming unit.
Data set [5] concerns THP1^wt cells. Put plainly: CD86-based cell assay. Particulars: read-out: THP1^wt CD86^+ EC50, 72 h.
The test system of data set [6] is THP1‐NTR^+ cells. The data set is described as follows: MTS cell viability assay, NTR-expressing cells. Type of data set: cell-based. (In general: Tetrazolium assays rely on reduction of a dye to a coloured formazan, in cell work by metabolically active cells.)
In data set [7] the test system is THP1‐NTR^+ cells. Put plainly: CD86-based cell assay. The settings on record: for EC50: 72 h, read-out: THP1‐NTR^+ CD86^+ EC50; for Selectivity window THP1^wt / THP1‐NTR^+: CD86 EC50 ratio.
The test system of data set [8] is THP1^wt cells. Put plainly: MTS cell viability assay, non-transfected cells. The format is cell-based.
Another data set concerns the target LSD1 (Homo sapiens, UniProt O60341). Particulars: cited from earlier work.
The subject of data set [9] is mixtures of the cell lines THP1^wt and THP1‐NTR^+. Put plainly: Bystander effect in the CFU assay. The format is cell-based. Particulars: at 1.0 μM.
Data set [10] deals with T1, nitroreductase NfsB (NTR) (Escherichia coli, UniProt P38489).
T1 sequence (P38489 1-217): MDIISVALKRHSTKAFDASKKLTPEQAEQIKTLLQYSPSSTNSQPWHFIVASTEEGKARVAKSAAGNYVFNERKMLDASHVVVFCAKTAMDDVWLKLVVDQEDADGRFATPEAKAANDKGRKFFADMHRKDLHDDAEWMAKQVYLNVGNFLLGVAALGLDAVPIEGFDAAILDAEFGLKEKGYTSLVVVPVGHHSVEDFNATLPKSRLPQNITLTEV
Type of data set: biochemical, E. coli.

Setting [11] is: read-out: THP1^wt CFU EC50, 10 days.
[12] abbreviates: 240 h, read-out: THP1^wt CFU EC50.

Entries after “also recorded” stand apart in the source; their conditions may differ.

As a reminder, the EC50 is the concentration giving half of the maximal effect.

With `CN(CCN(C)C(=O)Oc1ccc2nc(C#N)sc2c1)C(=O)OCc1ccc([N+](=O)[O-])s1` [compound 5, 2‐Cyanobenzo[d]thiazol‐6‐yl ((5‐nitrothiophen‐2‐yl)methyl) ethane‐1,2‐diylbis(methyl carbamate)], the “factor by which conversion exceeds that of probe 4” value with recombinant NTR is given as “at least 5”. The “probe conversion in nontransfected THP1^wt cells (in words)” value in the data set on THP1^wt cells [1] is on record as “no activation”. Besides, the “probe conversion in NTR-expressing THP1 cells (in words)” value with THP1‐NTR^+ cells [2] is listed as “converted to luciferin”.
As for “(1‐Methyl‐2‐nitro‐1H‐imidazol‐5‐yl)methyl((2‐methoxypyridin‐3‐yl)methyl) ((1S*,2S*,3R*)‐2‐methyl‐3‐phenylcyclopropyl)carbamate [2 f]”, the “Selectivity window THP1^wt / THP1‐NTR^+” value in the data set on THP1‐NTR^+ cells [3] was greater than 58±13. The EC50 in the data set on THP1‐NTR^+ cells [3] (10 days) is 0.9 ± 0.2 µM; in the data set on THP1^wt cells [4] (setting [11]), greater than 50 µM; in the data set with THP1^wt cells [5] (FACS), greater than 50 µM. Moreover, the “cytotoxicity in THP1‐NTR^+ (in words)” value in the data set with THP1‐NTR^+ cells [6] was “cytotoxicity”.
Consider `N#Cc1nc2ccc(OCc3ccc([N+](=O)[O-])s3)cc2s1` [compound 4, 6‐((5‐Nitrothiophen‐2‐yl)methoxy)benzo[d]thiazole‐2‐carbonitrile], for which the “probe conversion in nontransfected THP1^wt cells (in words)” value with THP1^wt cells [1] was “no activation”. Moreover, in the data set on THP1‐NTR^+ cells [2], the “probe conversion in NTR-expressing THP1 cells (in words)” value was “converted to luciferin”.
Consider `COc1ncccc1CN[C@@H]1C[C@H]1c1ccccc1` (racemic) [1 a, trans‐N‐((2‐Methoxypyridin‐3‐yl) methyl)‐2‐phenylcyclopropan‐1‐amine, reference compound], for which the EC50 came to 0.0041 ± 0.0004 µM in the data set on THP1‐NTR^+ cells [7] (Homo sapiens); 0.04 ± 0.01 µM in the data set on THP1‐NTR^+ cells [3] (240 h); 0.06 ± 0.02 µM in the data set with THP1^wt cells [4] (setting [12]); 0.068 ± 0.012 µM with THP1^wt cells [4] (read-out: colony formation EC50); 0.003 ± 0.0003 µM in the data set on THP1^wt cells [5] (Homo sapiens). Moreover, the “cytotoxicity in THP1^wt (in words)” value in the data set with THP1^wt cells [8] was “no cytotoxic effect”. In addition, in the data set with THP1‐NTR^+ cells [6], the “cytotoxicity in THP1‐NTR^+ (in words)” value is listed as “no cytotoxic effect”.
In the case of `COc1ncccc1CN[C@H]1[C@@H](C)[C@@H]1c1ccccc1` (relative stereo) [2 a, (1S*,2S*,3R*)‐N‐((2‐Methoxypyridin‐3‐yl) methyl)‐2‐methyl‐3‐phenylcyclo propan‐1‐amine], the “Selectivity window THP1^wt / THP1‐NTR^+” value in the data set on THP1‐NTR^+ cells [7] and with THP1‐NTR^+ cells [3] was 1±1 each time. The EC50 with THP1‐NTR^+ cells [7] (Homo sapiens) was found to be 15.3 µM; with THP1‐NTR^+ cells [3] (240 h) it was 32.4 ± 1.7 µM; in the data set on THP1^wt cells [4] (setting [12]), 45.5 ± 3.2 µM; in the data set with THP1^wt cells [5] (Homo sapiens), 17.6 µM. In the data set on THP1‐NTR^+ cells [7] (at 10 μM), the “THP1‐NTR^+ CD86^+ cells” value is listed as 34%. Besides, the “cytotoxicity in THP1^wt (in words)” value with THP1^wt cells [8] is “no cytotoxic effect”. For the same molecule, the “LSD1 inhibition (in words)” value at LSD1 was “lack inhibitory activity on LSD1 in the low micromolar range; also recorded: inactive on LSD1 below 10 μM”. For the same molecule, in the data set with THP1‐NTR^+ cells [6], the “cytotoxicity in THP1‐NTR^+ (in words)” value was “no cytotoxic effect”.
In the case of “(1‐Methyl‐2‐nitro‐1H‐imidazol‐5‐yl)methyl((2‐methoxypyridin‐3‐yl)methyl) ((1S*,2R*)‐2‐phenylcyclopropyl)carbamate [1 f]”, the “Selectivity window THP1^wt / THP1‐NTR^+” value with THP1‐NTR^+ cells [7] stood at 66±8; in the data set on THP1‐NTR^+ cells [3], 14±4. In addition, the EC50 in the data set on THP1‐NTR^+ cells [7] (FACS) was 0.0057 ± 0.0004 µM; with THP1‐NTR^+ cells [3] (10 days), 0.33 ± 0.07 µM; in the data set with THP1^wt cells [4] (setting [11]) it was 4.4 ± 0.7 µM; in the data set with THP1^wt cells [5] (FACS), 0.376 ± 0.017 µM. Besides, the “effect on colony formation in THP1^wt (in words)” value with THP1^wt cells [4] is given as “no effect in THP1^wt up to 2 μM”. Further, in [9], the “bystander effect in the CFU assay” value is on record as “no bystander effect”. Further, in data set [10] (HPLC of Fmoc derivative 3 after NTR reaction, Figure 3C), the “% conversion to 1a (fragmentation)” value is recorded as 59.3%. Also, the “factor of prodrug fragmentation relative to 4-nitrobenzyl 1 b” value in [10] (calculated from fragmentation data, Figure 3D) is on record as 17 x. The “cytotoxicity in THP1‐NTR^+ (in words)” value in the data set on THP1‐NTR^+ cells [6] is recorded as “cytotoxic effects”.
